Measurements reported in patent US20260242418A1, “CYCLIC PEPTIDES WITH ANTIBACTERIAL ACTIVITY AGAINST MULTIDRUG RESISTANT (MDR) PATHOGENS” (priority 2022, published 2026).
≈ marks a conversion by molar mass, not a printed value.

How the values were obtained:
[1] = tested on: P. aeruginosa ATCC 27853; assay: Time-kill curves; format: cell-based, Pseudomonas aeruginosa
Experimental: Time-kill curves (TKC) determine the in vitro antimicrobial activity of a compound, monitoring the bacterial growth over a certain period of time.
This assay was performed for two Acinetobacter baumannii strains (a clinical strain and ATCC 19606 strain) and one Pseudomonas aeruginosa ATCC 27853 strain, monitoring its growth during 24 hours at different PLP-3 (SEQ ID NO: 4) concentrations: MIC, 2×MIC, 4×MIC, 8×MIC. Moreover, in each TKC assay a negative and a positive growth control was stablished.
In different 13MI tubes, a certain concentration of PLP-3 peptide, Mueller-Hinton Broth (MHB, 1214, Condalab) and a fixed inoculum concentration were added. The final inoculum concentration in each tube was […]. Tubes were incubated at 37° C. at 180 rpm during 24 hours. Aliquots of the liquid culture were taken at different times: 0 h, 10 minutes, 30 minutes, 1 h, 2 h, 4 h, 8 h and 24 h. For each taken aliquot, serial dilutions with Phosphate Saline Buffer 1× (PBS 1×) were made and streaked in Luria-Bertani Agar (LB, 1083, Condalab). LB Agar plates were incubated at 37° C. during 18-22 hours. Grown colonies in LB Agar were counted in order to quantify the inoculum in each time period.
Three biological replicates were performed for each strain, and the mean and standard deviation was determined each time.

[2] = tested on: Staphylococcus aureus; format: cell-based; details: 19 strains (10/19 MRSA)
Text: (§1) The Minimum Inhibitory Concentration (MIC) of PLP-3 peptide (SEQ D NO: 4) against a collection of clinically relevant Gram-positive bacterial strains was obtained via broth microdilution. The tested species Staphylococcus aureus, Enterococcus faecium and Enterococcus faecalis. The followed protocol was based on the Clinical & Laboratory Standards Institute (CLSI) and EUCAST Guidelines.
(§2) In these tests, MIC is the value defined as the lowest concentration of an antimicrobial which inhibits the macroscopic growth of a bacterial strain after 16-20 hours of incubation at 37° C. The results of this assay were obtained by visual identification of bacterial growth at the bottom of each well plate. Since the wells contained decreasing concentrations of the peptide, the final result was indicated as a concentration, MIC, expressed in μg/mL of the PLP-3.
(§3) Bacterial strains were streaked in Columbia Agar plates (Columbia Agar with 5% Sheep Blood 90 mm Stacker plates, Becton Dickinson) and incubated overnight at 37° C. Polypropylene round bottomed 96-well plates were filled with 50 μL/well of Cation Adjusted Mueller-Hinton Broth (CAMHB, 90922, 500 g, Sigma-Aldrich) and 50 μL of PLP-3 (at 4 times higher the chosen initial concentration of the test) were added to the first well of each row of the plate followed by 1:2 serial dilutions up until the 10th column of the plate. The 11th and 12th columns were used for positive and negative growth controls.
(§4) Stain inoculums were standardized by preparing a 1:100 dilution of 0.5 McFarland solutions in CAMHB. Plates were inoculated with 50 μL of the diluted inoculums and covered with an adhesive film before 16-20 hours of incubation at 37° C.
(§5) Two biological and two technical replicates were performed per strain.
(§6) Broth microdilution testing from a panel of clinical strains of each specie provided MIC50 and […] values (Table 7). Strains were either from clinical origin, relevant to current clinical situation, or commercially available strains belonging to the American Type Culture Collection (ATCC), S. aureus 29213. Regarding clinical strains collection, 10 out of the 19 S. aureus strains were resistant to methicillin (MRSA), and 11 out of the 22 E. faecium strains were resistant to Vancomycin (VRE).
(§7) MIC50 value represents the antimicrobial concentration value that inhibits the growth of 50% of the bacterial strain panel. […] value represents the antimicrobial concentration value that inhibits the growth of 90% the bacterial strain collection.

[3] = tested on: Enterococcus faecium; format: cell-based; details: 22 strains (11/22 VRE)
Text: as §1, §2, §3, §4, §5, §6, §7

[4] = tested on: Enterococcus faecalis; format: cell-based; details: 15 strains
Text: as §1, §2, §3, §4, §5, §6, §7

[5] = in vitro; format: cell-based, human; details: human, haemolysis % relative to 1% TX-100 at 64 ug/mL PLP-3
Experimental: (§8) A 50% haematocrit solution (1:1 PBS 1×, P5493, 1 L, Sigma) was obtained from a commercially available human blood sample by performing 3 consecutive washes with PBS 1× and centrifuging at 2600 rpm for 10 minutes between washes. A final 4% erythrocyte solution was prepared with PBS 1× and chilled on ice until used.
(§9) Colistin and SEQ ID NO: 4 (PLP-3) stocks were prepared at 256 μg/mL in MHB and left at 4 C until used.
(§10) 96-well, round bottom plates were filled with 50 μL PBS 1× but for the haemolysis controls, which were left empty. 50 μL of each antimicrobial were added to the first column of each plate and serial dilution was performed. Then 50 μL of 4% erythrocyte solution were added to all wells of the plate and gently resuspended. Positive control consisted in PBS 1× and erythrocytes while haemolysis control was settled at 1% Triton™ X-100 (TX-100, 9002-93-1, 100 mL, Sigma) and erythrocytes.
(§11) Plates were incubated for 4 h at 37° C. and then centrifuged at 1500 rpm 5 min. […] An EPOCH™ spectrophotometer was used to read the plates at 450 nm.
(§12) Haemolysis assays of human erythrocytes were done using 1% TX-100 as a control for total haemolysis and absorbance values of PLP-3 were represented in relation to total haemolysis (TX-100 values).

[6] = tested on: human erythrocytes; assay: in vitro; format: cell-based; details: red cells of human
Experimental: as §8, §9, §10, §11, §12

## CC(C)C[C@@H]1NC(=O)[C@H](CCCNC(=N)N)NC(=O)[C@H](CCCNC(=N)N)NC(=O)[C@H](CCCNC(=N)N)NC(=O)[C@H]2CCCN2C(=O)[C@H](CCCNC(=N)N)NC(=O)[C@H](CCCNC(=N)N)NC(=O)[C@H](C(C)C)NC(=O)[C@@H]2CSSC[C@H](NC1=O)C(=O)N[C@@H](Cc1ccccc1)C(=O)N[C@@H](C(C)C)C(=O)N[C@@H](CCCNC(=N)N)C(=O)N1CCC[C@@H]1C(=O)N[C@@H](CCCCN)C(=O)N[C@@H](Cc1ccccc1)C(=O)N[C@@H](C(C)C)C(=O)N[C@@H](C(C)C)C(=O)N2 [PLP-3, cyclo[RRRLCFVRPKFVVCVRRP]]
[1]; 2xMIC (16 μg/mL), 0.00 h
  log(CFU/mL) Mean: 5.52 log(CFU/mL)
[1]; 2xMIC (16 μg/mL), 0.17 h
  log(CFU/mL) Mean: 4.48 log(CFU/mL)
[1]; 2xMIC (16 μg/mL), 0.50 h
  log(CFU/mL) Mean: 3.75 log(CFU/mL)
[1]; 2xMIC (16 μg/mL), 1.00 h
  log(CFU/mL) Mean: 2.97 log(CFU/mL)
[1]; 2xMIC (16 μg/mL), 2.00 h
  log(CFU/mL) Mean: 0.88 log(CFU/mL)
[1]; 2xMIC (16 μg/mL), 4.00 h
  log(CFU/mL) Mean: 0.00 log(CFU/mL)
[1]; 2xMIC (16 μg/mL), 8.00 h
  log(CFU/mL) Mean: 0.00 log(CFU/mL)
[1]; 2xMIC (16 μg/mL), 24.00 h
  log(CFU/mL) Mean: 0.00 log(CFU/mL)
[1]; 4xMIC (32 μg/mL), 0.00 h
  log(CFU/mL) Mean: 5.52 log(CFU/mL)
[1]; 4xMIC (32 μg/mL), 0.17 h
  log(CFU/mL) Mean: 4.32 log(CFU/mL)
[1]; 4xMIC (32 μg/mL), 0.50 h
  log(CFU/mL) Mean: 3.46 log(CFU/mL)
[1]; 4xMIC (32 μg/mL), 1.00 h
  log(CFU/mL) Mean: 1.23 log(CFU/mL)
[1]; 4xMIC (32 μg/mL), 2.00 h
  log(CFU/mL) Mean: 0.57 log(CFU/mL)
[1]; 4xMIC (32 μg/mL), 4.00 h
  log(CFU/mL) Mean: 0.00 log(CFU/mL)
[1]; 4xMIC (32 μg/mL), 8.00 h
  log(CFU/mL) Mean: 0.00 log(CFU/mL)
[1]; 4xMIC (32 μg/mL), 24.00 h
  log(CFU/mL) Mean: 0.00 log(CFU/mL)
[1]; 8xMIC (64 μg/mL), 0.00 h
  log(CFU/mL) Mean: 5.52 log(CFU/mL)
[1]; 8xMIC (64 μg/mL), 0.17 h
  log(CFU/mL) Mean: 4.14 log(CFU/mL)
[1]; 8xMIC (64 μg/mL), 0.50 h
  log(CFU/mL) Mean: 1.43 log(CFU/mL)
[1]; 8xMIC (64 μg/mL), 1.00 h
  log(CFU/mL) Mean: 0.00 log(CFU/mL)
[1]; 8xMIC (64 μg/mL), 2.00 h
  log(CFU/mL) Mean: 0.00 log(CFU/mL)
[1]; 8xMIC (64 μg/mL), 4.00 h
  log(CFU/mL) Mean: 0.00 log(CFU/mL)
[1]; 8xMIC (64 μg/mL), 8.00 h
  log(CFU/mL) Mean: 0.00 log(CFU/mL)
[1]; 8xMIC (64 μg/mL), 24.00 h
  log(CFU/mL) Mean: 0.00 log(CFU/mL)
[1]; MIC (8 μg/mL), 0.00 h
  log(CFU/mL) Mean: 5.52 log(CFU/mL)
[1]; MIC (8 μg/mL), 0.17 h
  log(CFU/mL) Mean: 4.81 log(CFU/mL)
[1]; MIC (8 μg/mL), 0.50 h
  log(CFU/mL) Mean: 4.34 log(CFU/mL)
[1]; MIC (8 μg/mL), 1.00 h
  log(CFU/mL) Mean: 3.67 log(CFU/mL)
[1]; MIC (8 μg/mL), 2.00 h
  log(CFU/mL) Mean: 3.15 log(CFU/mL)
[1]; MIC (8 μg/mL), 4.00 h
  log(CFU/mL) Mean: 2.63 log(CFU/mL)
[1]; MIC (8 μg/mL), 8.00 h
  log(CFU/mL) Mean: 2.10 log(CFU/mL)
[1]; MIC (8 μg/mL), 24.00 h
  log(CFU/mL) Mean: 5.08 log(CFU/mL)
[1]; time-kill curves over 24 hours, MIC to 8xMIC
  bactericidal or bacteriostatic activity: bactericidal effect
[2]
  MIC50: 4 µg/mL (≈ 1.76 µM)
  MIC90: 8 µg/mL (≈ 3.53 µM)
[3]
  MIC50: 2 µg/mL (≈ 0.882 µM)
  MIC90: 2 µg/mL (≈ 0.882 µM)
[4]
  MIC50: 4 µg/mL (≈ 1.76 µM)
  MIC90: 4 µg/mL (≈ 1.76 µM)
[5]
  hemolysis at 4 h, 64 ug/mL: 62.6%
[6]
  IC50 from the haemolysis curve: 48.53 µg/mL (≈ 21.4 µM)
